Laboratory results: ChEMBL document CHEMBL1159155, “An ether-based peptide analog as c-AMP-dependent protein kinase inhibitor/substrate” (Bioorg Med Chem Lett, 1994)
Non-standard residues stand in square brackets, D forms with d. Residues, ends and D or L forms follow the SMILES beside them. *: point of attachment. Bpa = N[C@@H](Cc1ccc(C(=O)c2ccccc2)cc1)C(=O)O; Npys = O=[N+]([O-])c1cccnc1S*; X1 = CC(C)CCOC[C@H](CO)N*

Columns and labels:
[1] = species on record: Bos taurus; assay: Affinity for bovine heart cAMP-dependent protein kinase
[2] = species on record: Bos taurus; assay: Activity against bovine heart cAMP-dependent protein kinase
[3] = Inhibition of bovine heart cAMP-dependent protein kinase (PKA); parameters: species or system Bos taurus

Row | Km [1] [µM] | Vmax [2] [µM/min/mg] | Ki [3] [µM] | Kd [3] [µM] | Vmax [1] [µM/min/mg] | Compound
1 | 108 | 0.107 | 120 |  |  | CC(C)CCOC[C@H](CO)NC(=O)[C@H](C)NC(=O)[C@H](CCCN=C(N)N)NC(=O)[C@H](CCCN=C(N)N)NC(=O)[C@@H](N)CC(C)C (H-LRRA-X1)
2 |  |  |  | 40 |  | CC(C)C[C@H](NC(=O)[C@H](CSSc1ncccc1[N+](=O)[O-])NC(=O)[C@H](C)NC(=O)[C@H](CCCN=C(N)N)NC(=O)[C@H](CCCN=C(N)N)NC(=O)[C@@H](N)CC(C)C)C(=O)NCC(=O)O (H-LRRAC(Npys)LG-OH)
3 |  |  |  | 110 |  | CC(C)C[C@H](NC(=O)[C@H](Cc1ccc(C(=O)c2ccccc2)cc1)NC(=O)[C@H](C)NC(=O)[C@H](CCCN=C(N)N)NC(=O)[C@H](CCCN=C(N)N)NC(=O)[C@@H](N)CC(C)C)C(=O)NCC(=O)O (H-LRRA[Bpa]LG-OH)
4 | 4.6 |  |  | 250 | 0.38 | CC(C)C[C@H](NC(=O)[C@H](CO)NC(=O)[C@H](C)NC(=O)[C@H](CCCNC(=N)N)NC(=O)[C@H](CCCNC(=N)N)NC(=O)[C@@H](N)CC(C)C)C(=O)NCC(=O)O [KEMPTIDE]
5 |  |  |  | 490 |  | H-LRRAALG-OH
